Assay type in all cases: cell-based
Assay [1] has as its system Acinetobacter baumannii ATCC 17978. As to the kind of experiment: Broth microdilution MIC. Conditions: ATCC 17978, standard strain. As for the experimental part: (§1) Determination of Minimal Inhibitory Concentration (MIC)
(§2) In order to test the inhibitory effect of the antimicrobial peptides of the present disclosure, broth microdilution test was conducted to determine the minimal inhibition concentration (MIC) of the antimicrobial peptides against bacteria. The MIC represents the minimal concentration of the peptide which has the ability to inhibit bacteria growth completely.
(§3) Acinetobacter baumannii strains used in the examples in the conduction of the minimal inhibitory concentration and the minimum bactericidal concentration tests are shown in Table 2.
On the technique in general: Dilution methods test growth across graded concentrations, often in twofold steps.

The subject of assay [2] is Acinetobacter baumannii ATCC 19606. As to the kind of experiment: Broth microdilution MIC. Conditions: ATCC 19606, standard strain. As for the experimental part: as §1, §2, §3
Assay [3] deals with Acinetobacter baumannii 39181. As for the experimental part:
as §1, §2, §3

In assay [4] the test system is Acinetobacter baumannii 39400. As for the experimental part: as §1, §2, §3
Assay [5] has as its system Acinetobacter baumannii 44820. On the procedure: as §1, §2, §3
Assay [6] deals with Acinetobacter baumannii ATCC 17978CR. Conditions: colistin-resistant. On the procedure:
as §1, §2, §3

Assay [7] concerns Acinetobacter baumannii ATCC 19606CR. Conditions: colistin-resistant. On the procedure:
as §1, §2, §3

Assay [8] relates to Acinetobacter baumannii BCRC 80276. As for the experimental part: as §1, §2, §3
Assay [9] relates to Acinetobacter baumannii ATCC 17978. Briefly: Minimum bactericidal concentration (MBC) determination. Conditions: ATCC 17978, standard strain. On the procedure:
(§4) Determination of Minimum Bactericidal Concentration (MBC)
(§5) In order to find out the minimum bactericidal concentration of the antimicrobial peptides of the present disclosure against bacteria, the surface of a suitable culture medium was covered by 100 μL of antimicrobial peptides at the minimal inhibitory concentration determined above with glass beads, then the medium was cultured at 37° C. for 24 hours, thereafter, and observation was conducted for 3 days. When no colony grew, it is the indication that the bacteria have been killed.
as §3

Assay [10] deals with Acinetobacter baumannii ATCC 19606. Described as above. Conditions: ATCC 19606, standard strain. On the procedure: as §4, §5, §3
Assay [11] relates to Acinetobacter baumannii 39181. On the procedure: as §4, §5, §3
The source holds these as a separate data set.

Assay [12] concerns Acinetobacter baumannii 39400. As for the experimental part:
as §4, §5, §3
The source holds these as a separate data set.

In assay [13] the test system is Acinetobacter baumannii 44820. As for the experimental part:
as §4, §5, §3
The source holds these as a separate data set.

Assay [14] relates to Acinetobacter baumannii ATCC 17978CR. Conditions: colistin-resistant. On the procedure:
as §4, §5, §3
This is another data set of the same source.

Assay [15] relates to Acinetobacter baumannii ATCC 19606CR. Conditions: colistin-resistant. As for the experimental part:
as §4, §5, §3
The source holds these as a separate data set.

Assay [16] deals with Acinetobacter baumannii BCRC 80276. As for the experimental part:
as §4, §5, §3
The source holds these as a separate data set.

Assay [17] deals with Acinetobacter baumannii. Briefly: Broth microdilution MIC, summary in text. On the procedure:
as §1, §2

Assay [18] deals with Acinetobacter baumannii. Briefly: MBC determination. On the procedure: as §4, §5
The test system of assay [19] is Acinetobacter baumannii. Briefly: Scanning electron microscope observation of bacterial destruction. Conditions: 80 μM peptide, 1×10^9 CFU bacteria, 37° C., 1 hour.
Where [20] appears, read: BCRC 80276, multidrug-resistant.
Where [21] appears, read: Acinetobacter baumannii, summary of Table 3.
Setting [22] is: multidrug-resistant Acinetobacter baumannii.

Structures are written as SMILES. Converted amounts (≈) assume the structure as drawn. Where two headings read alike, the source gives them in different places. Where a SMILES comes first, the peptide text is derived from it.

For `CC[C@H](C)[C@H](NC(=O)[C@H](C)NC(=O)[C@H](CCCCN)NC(=O)[C@H](CCC(N)=O)NC(=O)[C@@H](NC(=O)[C@H](C)NC(=O)[C@@H](NC(=O)[C@H](CC(C)C)NC(=O)[C@H](CCCCN)NC(=O)[C@H](CCC(=O)O)NC(=O)[C@H](CC(C)C)NC(=O)[C@H](C)NC(=O)[C@H](CCCCN)NC(=O)[C@@H](N)CCC(=O)O)[C@@H](C)CC)[C@@H](C)CC)C(=O)N[C@@H](CCCCN)C(=O)NCC(=O)N[C@@H](CCSC)C(=O)N[C@@H](CC(C)C)C(=O)N[C@@H](C)C(=O)NCC(=O)N[C@@H](Cc1c[nH]c2ccccc12)C(=O)N[C@@H](Cc1ccccc1)C(=O)N[C@H](C(=O)NCC(=O)N[C@H](C(=O)N[C@@H](C)C(=O)N[C@@H](CCCNC(=N)N)C(=O)N[C@@H](CCCNC(=N)N)C(=O)N[C@@H](CCCCN)C(=O)N[C@@H](CCCNC(=N)N)C(=O)O)C(C)C)[C@@H](C)O` [LysAB2 113-145 G3] (H-EKALEKLIAIQKAIKGMLAGWFTGVARRKR-OH), the “Minimal Inhibitory Concentration (MIC)” value in assay [1], in assay [2], in assay [3] (39181), in assay [4] (39400), in [5] (44820) and in assay [6] was 16 µM each time. The “Minimal Inhibitory Concentration (MIC)” value in assay [7] and in assay [8] (BCRC 80276) was 16 µM in each case. The “Minimum Bactericidal Concentration (MBC)” value amounted to 16 µM in [9]; 16 µM in assay [10]; 16 µM in assay [11] (39181); 16 µM in [12] (39400); 16 µM in assay [13] (44820); 32 µM in assay [14]. For the same compound, the “Minimum Bactericidal Concentration (MBC)” value in assay [15] was found to be 32 µM; in assay [16] (BCRC 80276), 16 µM.
For `CC[C@H](C)[C@H](NC(=O)[C@H](C)NC(=O)[C@H](CCCCN)NC(=O)[C@H](CCC(N)=O)NC(=O)[C@@H](NC(=O)[C@H](C)NC(=O)[C@@H](NC(=O)[C@H](CC(C)C)NC(=O)[C@H](CCCCN)NC(=O)[C@H](CCC(=O)O)NC(=O)[C@H](CC(C)C)NC(=O)[C@H](C)NC(=O)[C@H](CCCCN)NC(=O)[C@@H](N)CCC(=O)O)[C@@H](C)CC)[C@@H](C)CC)C(=O)N[C@@H](CCCCN)C(=O)NCC(=O)N[C@@H](CCSC)C(=O)N[C@@H](CC(C)C)C(=O)N[C@@H](CC(N)=O)C(=O)NCC(=O)N[C@@H](Cc1c[nH]c2ccccc12)C(=O)N[C@@H](Cc1ccccc1)C(=O)N[C@H](C(=O)NCC(=O)N[C@H](C(=O)N[C@@H](Cc1ccccc1)C(=O)N[C@@H](CCCNC(=N)N)C(=O)N[C@@H](CCCNC(=N)N)C(=O)N[C@@H](CCCCN)C(=O)N[C@@H](CCCNC(=N)N)C(=O)O)C(C)C)[C@@H](C)O` [LysAB2 113-145 G1] (H-EKALEKLIAIQKAIKGMLNGWFTGVFRRKR-OH; N-terminus and C-terminus assumed), the “Minimal Inhibitory Concentration (MIC)” value was 8 µM in assay [1]; 8 µM in [2]; 8 µM in assay [3] (39181, multidrug-resistant); 8 µM in assay [4] (39400, multidrug-resistant); 8 µM in [5] (44820, multidrug-resistant); 16 µM in assay [6]. Also, the figures for the “Minimal Inhibitory Concentration (MIC)” value in [7] and in [8] (setting [20]) were 16 µM and 8 µM, respectively. Moreover, the “Minimum Bactericidal Concentration (MBC)” value in assay [9] was determined as 8 µM; in [10], 8 µM; in assay [11] (39181, multidrug-resistant), 8 µM; in assay [12] (39400, multidrug-resistant), 8 µM; in assay [13] (44820, multidrug-resistant), 8 µM; in assay [14], 16 µM. In addition, the “Minimum Bactericidal Concentration (MBC)” value in [15] was determined as 16 µM; in [16] (setting [20]), 8 µM.
As to `CC[C@H](C)[C@H](NC(=O)[C@H](C)NC(=O)[C@H](CCCCN)NC(=O)[C@H](CCC(N)=O)NC(=O)[C@@H](NC(=O)[C@H](C)NC(=O)[C@@H](NC(=O)[C@H](CC(C)C)NC(=O)[C@H](CCCCN)NC(=O)[C@H](CCC(=O)O)NC(=O)[C@H](CC(C)C)NC(=O)[C@H](C)NC(=O)[C@H](CCCCN)NC(=O)[C@H](CCC(=O)O)NC(=O)[C@@H]1CCCN1C(=O)[C@@H](N)CC(N)=O)[C@@H](C)CC)[C@@H](C)CC)C(=O)N[C@@H](CCCCN)C(=O)NCC(=O)N[C@@H](CCSC)C(=O)N[C@@H](CC(C)C)C(=O)N[C@@H](CC(N)=O)C(=O)NCC(=O)N[C@@H](Cc1c[nH]c2ccccc12)C(=O)N[C@@H](Cc1ccccc1)C(=O)N[C@H](C(=O)NCC(=O)N[C@H](C(=O)NCC(=O)N[C@@H](Cc1ccccc1)C(=O)N[C@@H](CCCNC(=N)N)C(=O)N[C@@H](CCCNC(=N)N)C(=O)N[C@@H](CCCCN)C(=O)N[C@@H](CCCNC(=N)N)C(=O)O)C(C)C)[C@@H](C)O` [LysAB2 113-145 G4] (H-NPEKALEKLIAIQKAIKGMLNGWFTGVGFRRKR-OH; N-terminus and C-terminus assumed), the “Minimal Inhibitory Concentration (MIC)” value was 4 µM in assay [2]; 4 µM in [3] (39181, multidrug-resistant); 4 µM in [4] (39400, multidrug-resistant); 4 µM in [5] (44820, multidrug-resistant); 8 µM in assay [6]; 8 µM in assay [7]. In assay [8] (setting [20]), the “Minimal Inhibitory Concentration (MIC)” value was 4 µM. Also, the “Minimum Bactericidal Concentration (MBC)” value in assay [10] was 4 µM; in assay [11] (39181, multidrug-resistant), 4 µM; in assay [12] (39400, multidrug-resistant), 4 µM; in [13] (44820, multidrug-resistant) it was 4 µM; in assay [14], 8 µM; in assay [15], 8 µM. Also, the “Minimum Bactericidal Concentration (MBC)” value in assay [16] (setting [20]) came to 4 µM. Moreover, the minimal inhibitory concentration in the assay with Acinetobacter baumannii [17] (setting [21]) and in the assay with Acinetobacter baumannii [17] (setting [22]) was 4 µM (≈ 15.1 µg/mL) each time. Besides, the minimum bactericidal concentration with Acinetobacter baumannii [18] (setting [21]) and in the assay on Acinetobacter baumannii [18] (setting [22]) was 4 µM (≈ 15.1 µg/mL) in each case. Also, the “appearance of bacteria under scanning electron microscope” value in the assay on Acinetobacter baumannii [19] was “incomplete surface and holes thereon”.
As for `CC[C@H](C)[C@H](NC(=O)[C@H](C)NC(=O)[C@@H](NC(=O)[C@H](CCC(N)=O)NC(=O)[C@@H](NC(=O)[C@H](C)NC(=O)[C@@H](NC(=O)[C@H](CC(C)C)NC(=O)[C@@H]1CCCN1C(=O)[C@H](CCC(=O)O)NC(=O)[C@H](CC(C)C)NC(=O)[C@H](C)NC(=O)[C@H](CCCCN)NC(=O)[C@H](CCC(=O)O)NC(=O)[C@@H]1CCCN1C(=O)[C@@H](N)CC(N)=O)[C@@H](C)CC)[C@@H](C)CC)[C@@H](C)CC)C(=O)N[C@@H](CCCCN)C(=O)NCC(=O)N[C@@H](CCSC)C(=O)N[C@@H](CC(C)C)C(=O)N[C@@H](CC(N)=O)C(=O)NCC(=O)N[C@@H](Cc1c[nH]c2ccccc12)C(=O)N[C@@H](Cc1ccccc1)C(=O)N[C@H](C(=O)NCC(=O)N[C@H](C(=O)NCC(=O)N[C@@H](Cc1ccccc1)C(=O)N[C@@H](CCCNC(=N)N)C(=O)N[C@@H](CCCNC(=N)N)C(=O)N[C@@H](CCCCN)C(=O)N[C@@H](CCCNC(=N)N)C(=O)O)C(C)C)[C@@H](C)O` [LysAB2 113-145] (H-NPEKALEPLIAIQIAIKGMLNGWFTGVGFRRKR-OH; N-terminus and C-terminus assumed), the “Minimal Inhibitory Concentration (MIC)” value amounted to 64 µM in assay [2]; 64 µM in assay [3] (39181, multidrug-resistant); 64 µM in assay [4] (39400, multidrug-resistant); 64 µM in assay [5] (44820, multidrug-resistant); 64 µM in [6]; 64 µM in assay [7]. Further, the “Minimal Inhibitory Concentration (MIC)” value in assay [8] (setting [20]) stood at 64 µM. Also, the “Minimum Bactericidal Concentration (MBC)” value in assay [10] was 64 µM; in assay [11] (39181, multidrug-resistant), 64 µM; in assay [12] (39400, multidrug-resistant), 64 µM; in assay [13] (44820, multidrug-resistant) it was 64 µM; in [14], 64 µM; in [15], 64 µM. Besides, the “Minimum Bactericidal Concentration (MBC)” value in assay [16] (setting [20]) is 64 µM. In the assay on Acinetobacter baumannii [17] (setting [21]), this compound displayed a minimal inhibitory concentration of 64 µM (≈ 238 µg/mL). In the assay on Acinetobacter baumannii [18] (setting [21]), this compound registered a minimum bactericidal concentration of 64 µM (≈ 238 µg/mL). In addition, in the assay on Acinetobacter baumannii [19], the “appearance of bacteria under scanning electron microscope” value is “surface of the bacterial body is incomplete and has holes thereon, even is broken”.

Source of the values: patent US20170064965A1, “ANTIMICROBIAL PEPTIDES DERIVED FROM PHAGE OF ACINETOBACTER BAUMANNII AND USE THEREOF” (Hualien Tzu Chi Hospital, Buddhist Tzu Chi Medical …, priority 2015, published 2017).
